Reference: PMC7281206, “Cysteine Cathepsins Inhibition Affects Their Expression and Human Renal Cancer Cell Phenotype” (Cancers, 2020)

Legend:
pancreatic cells = conditions: 48 and 72 h; ref [58]; cited from earlier work
Excerpt: In general, Cts inhibitors cannot be considered very potent cytostatic molecules. H ...

769-P cells = assay: Cell viability with paclitaxel (MTT), 769-P; assay type: cell-based, human; conditions: PXT alone, 100 nM, 72 h
Method: (§1) To evaluate the inhibitory properties of the peptides directly on the human renal cancer cells, we firstly assessed the impact of Ac-PLVE-FMK and Ac-VLPE-FMK on the cell viability of 769-P and A498 cells to determine the working concentrations for further experiments. […] Further experiments were performed using a concentration of 20 μM. To understand if the peptides could affect the activity of caspase proteases, we tested their effect on cell viability in combination with the chemotherapeutic paclitaxel (PXT) in both the cell lines. […] Next, we evaluated the effect of the peptides on renal cancer cell proteolytic activity against the fluorogenic probe Ac-PLVQ-AMC. In this case, 769-p and A498 cells were treated for 30 min with Ac-PLVE-FMK or Ac-VLPE-FMK and were then exposed for 10 min to the substrate Ac-PLVQ-AMC prior fluorescence microscopy analysis (Figure 3c,d).
(§2) The cell number was evaluated by counting viable cells using the MTT (3-(4,5-dimethylthiazol-2-yl)-2,5-diphenyltetrazolium bromide) colorimetric assay. A total of 2 × 10^4 cells/well were seeded on independent 96-well plates for each time point (0, 24, 48, and 72 h), with five replicates and treated with two inhibitors (2.5–250 μM). Then, 10 µL of the MTT reagent was added to each well, and cells were incubated for another 5 h. Next, the absorbance value was measured using a CLARIOstar® Plus plate reader (BMG Labtech, Ortenberg, Germany) at 490 nm. Triplicate wells were assayed, and S.D.s were determined.
Figure S3. Combined effect of PXT and the inhibitors on 769‐P proliferation: 769‐P cells were treated with 100 nM of PXT alone or in combination with 20 μM of Ac‐PLVE and Ac‐VLPE and cell proliferation was measured after 24, 48, and 72 h via MTT assay. Data represent the mean (± S.D.) of three independent experiments, each performed in triplicate.
Figure S4. Spheroids size and circularity: (a,b) size and circularity of 769‐P and (c,d) A498 cells upon treatment with Ac‐PLVE‐FMK and Ac‐VLPE‐FMK. Data represent the mean (± S.D.) of three independent experiments, each performed in triplicate. […]

A498 cells = assay: Cell mortality with paclitaxel, A498; assay type: cell-based, human; conditions: PXT alone (data not shown)
Method: as §1
as §2, with “Then, 10 µL of the MTT reagent was added to each well, and cells were incubated for another 5 h.” left out

human recombinant CtsB = assay: Fluorescent protease activity assay, recombinant CtsB; assay type: biochemical; conditions: 20 nM CtsB, 50 μM substrate, no inhibitor
Method: (§3) Ac-PLVE-FMK and Ac-VLPE-FMK inhibitory properties were evaluated against human recombinant CtsL and B. These recombinant enzymes were expressed in E. coli via plasmid transformation and further purification, using nickel-nitrilotriacetic acid (Ni-NTA) sepharose. Gel zymography assay was used to provide a preliminary evaluation of the ability of these recombinant proteins to degrade the gelatin substrate previously embedded in the gel (Supplementary Figure S1). Following Coomassie staining, the Cts were detectable as single bands. As expected, a translucent area was evident, due to the substrate digestion in the proximity of the proteins. Then, the recombinant proteins were tested for their ability to digest the Triticain-α substrate Ac-PLVQ via fluorescent protease activity assay, previously optimized by our group. This probe was conjugated with the fluorogenic chromophore 7-amino-4-methylcoumarin (Ac-PLVQ-AMC). After proteolytic cleavage, it emits a detectable fluorescent signal.
(§4) Total RNA extract from retinoblastoma […] cells was used to obtain cDNA. A pair of oligonucleotides ([…] and […]) was used for the amplification of DNA fragment containing CtsB, the product of which was ligated into pET15b (Merck Millipore, Billerica, MA, USA) using NdeI and XhoI. DNA fragment containing CtsL was amplified using a pair of oligonucleotides ([…] and […]) and ligated into pET28a (+) (Merck Millipore, Billerica, MA, USA) using NheI and HindIII. […]
(§5) The activity of recombinant CtsL and B was detected by the hydrolysis of the fluorogenic substrate Ac-Pro-Leu-Val-Gln- 7-amino-4-methylcoumarin (AMC) (Pepmic Suzhou Jiangsu, China). […] The substrate was added to a final concentration of 50 μM, and its hydrolysis was continuously measured for 12 min using a CLARIOstar® Plus plate reader (BMG Labtech Ortenberg Baden-Württemberg, Germany) at excitation and emission wavelengths of 353 and 442 nm, respectively.

human recombinant CtsL = assay: Fluorescent protease activity assay, recombinant CtsL; assay type: biochemical; conditions: 20 nM CtsL, 50 μM substrate, no inhibitor
Method: as §3, §4, §5

CC(C)C[C@H](NC(=O)[C@H]1O[C@@H]1C(=O)O)C(=O)NCCCCN=C(N)N [E64]
Cytotoxic effect (pancreatic cells): only a moderated cytotoxic effect, which reached a plateau phase after 48 and 72 h

CC(=O)O[C@H]1C(=O)[C@@]2(C)[C@H]([C@H](OC(=O)c3ccccc3)[C@]3(O)C[C@H](OC(=O)[C@H](O)[C@@H](NC(=O)c4ccccc4)c4ccccc4)C(C)=C1C3(C)C)[C@]1(OC(C)=O)CO[C@@H]1C[C@@H]2O [PXT, paclitaxel, reference compound]
Ability to kill cancer cells (769-P cells): the ability of the PXT to kill cancer cells was evident after 72 h of treatment at a concentration of 100 nM
Cell mortality (A498 cells): did not result in high mortality

Ac-Pro-Leu-Val-Gln- 7-amino-4-methylcoumarin (AMC) [Ac-PLVQ-AMC, fluorogenic Triticain-α substrate conjugated with 7-amino-4-methylcoumarin, reference compound]
Substrate cleavage (human recombinant CtsB): able to cleave the probe
Substrate cleavage (human recombinant CtsL): able to cleave the probe
